According to patent US5952511A, “Indolin-2-one derivatives” (Chugai Seiyaku Kabushiki Kaisha, priority 1993, dated 1999):

Legend:
[1] = target: T1, gastrin receptors (guinea pig gastric glands) (Cavia porcellus, UniProt H0VZC5); test: Gastrin Receptor Binding Test in Guinea Pig Gastric Glands (Test Example 1); set-up: species or system guinea pig (Hartley, male); details: inhibition of specific 125I-gastrin I human binding (22.5 pM), 25° C., 45 min
T1 construct: The gastric glands were isolated from the tissue with a pipette; from tissue; host or cells: isolated gastric glands from gastric mucosa of Hartley male guinea pigs
T1 sequence (H0VZC5 1-426): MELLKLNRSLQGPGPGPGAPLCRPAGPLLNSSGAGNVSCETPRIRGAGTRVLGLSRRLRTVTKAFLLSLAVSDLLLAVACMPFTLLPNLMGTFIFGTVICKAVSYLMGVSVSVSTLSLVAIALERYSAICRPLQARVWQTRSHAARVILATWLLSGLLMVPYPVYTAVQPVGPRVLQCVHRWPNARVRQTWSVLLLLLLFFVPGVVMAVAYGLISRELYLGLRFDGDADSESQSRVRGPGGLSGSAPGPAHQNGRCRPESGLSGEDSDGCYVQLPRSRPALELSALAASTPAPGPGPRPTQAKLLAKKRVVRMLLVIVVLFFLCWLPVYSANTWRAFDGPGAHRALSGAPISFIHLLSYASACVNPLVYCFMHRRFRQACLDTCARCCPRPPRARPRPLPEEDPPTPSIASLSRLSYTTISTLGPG
Description: Gastrin Receptor Binding Test in Guinea Pig Gastric Glands
Preparation of Gastric Glands:
Guinea pig gastric glands were prepared according to the method of Chang, et al., Biochem. Biophys. Res. Commun., 134, 895 (1986). The gastric mucosa of a Hartley male guinea pig was peeled off. After washing, the mucosa was minced with scissors in buffer A (Eagle's MEM containing 2 mM L-glutamine and 25 mM HEPES; pH 7.4). After washing, the minced tissue was incubated in buffer A containing 0.025% collagenase, 0.01% soy bean trypsin inhibitor, and 0.1% BSA at 37° C. for 60 minutes under 95% O2 and 5% CO2. The gastric glands were isolated from the tissue with a pipette, washed twice with buffer A, and filtered through a mesh. Then, the gastric glands were obtained by centrifugation.
Guinea pig gastric glands were resuspended in buffer B (Hank's solution containing 10 mM HEPES and 0.2% BSA; pH 7.4) (10 ml of buffer B per guinea pig).
To 200 μl of the suspension containing the resuspended isolated gastric glands were added 20 μl of ^125 I-gastrin I human (final concentration: 22.5 pM). Then, 10 μl of a test compound or a solvent (for total binding) or 10 μM Pentagastrin (for nonspecific binding), and buffer B was added there to make a total volume of 1 ml. The reaction mixture was incubated at 25° C. for 45 minutes and then centrifuged at 12000 g. The supernatant was removed by suction, and the radioactivity of the isolated gastric glands was measured with a gamma-counter.
The specific binding of gastrin to gastrin receptors was obtained from a difference between the total binding and the nonspecific binding. The IC50 of the test compound in inhibition of specific binding was calculated.

gastric acid secretion [2] = test: Inhibitory Activity on Gastric Acid Secretion in Pylorus Ligated Rats (Test Example 2); type: in vivo, rat (Sprague-Dawley, male); details: Rattus norvegicus, intraduodenal, 10 mg/kg, i.d., 4 h
Description: Inhibitory Activity on Gastric Acid Secretion in Pyrolus Ligated Rats
Sprague-Dawley male rats weighing about 200 g were deprived of food for 24 hours while allowed water ad libitum. The abdomen was opened under anesthesia with ethyl ether, the pyrolus ligated, and the abdomen closed. The rats were deprived of food and water for 4 hours until they were surcrified with ethyl ether. The stomach was removed, and gastric juice was collected and measured. The gastric juice was centrifuged at 3000 rpm, and the supernatant was titrated up to pH 7.0 with 0.1N NaOH solution to obtain the acidity of the gastric juice. The amount of the gastric acid output was calculated by multiplying the gastric juice volume by the acidity, and the percent inhibition of acid secretion was obtained according to the following equation. A test compound, suspended in a 3% gum arabic solution, was administered intraduodenally at a dose of 2 ml/kg immediately after the pyrolus ligation.
Inhibition (%)=[(Average amount of gastric acid output in control group--Average amount of gastric acid output in test group)/Average amount of gastric acid secreted […]]×100

[3] = target: T2, CCK-B receptors (rat cerebral cortex) (Rattus norvegicus, UniProt P30553); test: CCK-B Receptor Binding Test in Rat Cerebral Cortex (Test Example 3); set-up: species or system rat (Sprague-Dawley, male); details: inhibition of specific 125I-CCK-8 sulfated binding (15 pM), 25° C., 120 min
T2 construct: Cerebral cortex was minced in the same buffer, and homogenized with Polytron; from tissue; host or cells: cerebral cortex membrane fraction of Sprague-Dawley male rats
T2 sequence (P30553 1-452): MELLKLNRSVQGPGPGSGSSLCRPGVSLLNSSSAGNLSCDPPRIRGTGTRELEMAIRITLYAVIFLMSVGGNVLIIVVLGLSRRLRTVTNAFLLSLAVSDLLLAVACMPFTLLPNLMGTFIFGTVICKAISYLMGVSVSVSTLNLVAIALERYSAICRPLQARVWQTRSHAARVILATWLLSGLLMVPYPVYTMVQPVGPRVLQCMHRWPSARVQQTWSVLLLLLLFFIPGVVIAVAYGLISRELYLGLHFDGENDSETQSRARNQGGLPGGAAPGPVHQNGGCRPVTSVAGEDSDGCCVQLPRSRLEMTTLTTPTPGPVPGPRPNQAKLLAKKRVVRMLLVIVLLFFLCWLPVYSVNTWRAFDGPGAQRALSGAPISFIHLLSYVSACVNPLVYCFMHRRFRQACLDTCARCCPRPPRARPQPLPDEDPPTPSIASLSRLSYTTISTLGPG
Description: CCK-B Receptor Binding Test in Rat Cerebral Cortex
A rat cortical membrane fraction was prepared in accordance with the method of Chang, et al., Proc. Natl. Acad. Sci., U.S.A., 83, 4923 (1986). Sprague-Dawley male rats were sucrified and the brains were removed and immersed in a 50 mM Tris-HCl buffer (pH 7.4) under ice-cooling, and the cortex was dissected. Cerebral cortex was minced in the same buffer, and homogenized with Polytron. The homogenate was centrifuged at 2,500 g, and the supernatant was further centrifuged at 50,000 g. The pellet was resuspended in a reaction buffer solution (10 mM HEPES, 5 mM MgCl2, 1 mM EGTA, 130 mM NaCl; pH 6.5).
To 150 μl of the resulting rat cerebral cortex suspension were added 20 μl of ^125 I-CCK-8 sulfated (final concentration: 15 pM) and 10 μl of a test compound or a solvent (for total binding) or 1 μM CCK-8 sulfated (for nonspecific binding), and the reaction buffer solution was added there to make 1 ml. The reaction mixture was incubated at 25° C. for 120 minutes, followed by filtration through a GF/B filter (produced by Whatman). The radio-activity of the membrane fraction adsorbed onto the filter was measured with a gamma-counter.
The specific binding to CCK-B receptors was obtained from a difference between the total binding and the nonspecific binding. The IC50 of the test compound in inhibition of specific binding was calculated.

gastric acid secretion [4] = details: in words; cited from earlier work
gastrin receptors = details: in words; cited from earlier work
CCK-B receptors = details: in words; cited from earlier work

Compound	IC50 [1]	IC50 [3]	inhibition in vivo at 10 mg/kg (gastric acid secretion [2])	inhibitory activity on gastric acid secretion when administered in vivo (gastric acid secretion [4])	binding activity to gastrin receptors (gastrin receptors)	binding activity to CCK-B receptors (CCK-B receptors)
CCOC(CN1C(=O)C(CC(=O)Nc2ccc(OC)nc2)(NC(=O)Nc2ccc(C)cc2)c2ccccc21)OCC (single isomer, unassigned; (+)) [Example 181, (+)-1-(2,2-Diethoxyethyl)-3-((2-methoxypyrido-5-yl)aminocarbonylmethyl)-3-(N'-(4-methylphenyl)ureido)indolin-2-one]	2.2 nM	0.78 nM	69%			
CCOC(CN1C(=O)C(CC(=O)Nc2ccc(C)cn2)(NC(=O)Nc2cccc(OC)c2)c2ccccc21)OCC (single isomer, unassigned; (+)) [Example 190, (+)-1-(2,2-Diethoxyethyl)-3-(N'-(3-methoxyphenyl)ureido)-3-((5-methylpyrido-2-yl)aminocarbonylmethyl)indolin-2-one]	0.68 nM	0.1 nM	70%			
Cc1cccc(NC(=O)N[C@@H]2N=C(c3ccccc3)c3ccccc3N(C)C2=O)c1 [L-365,260]				do not exert powerful inhibitory activity on gastric acid secretion	high binding activity to gastrin receptors	
CCCN(CCC)C(=O)C(CCC(=O)O)NC(=O)c1ccccc1 (stereo not shown) [Proglumide]					very weak	very weak

Further lines, with some results ahead:

IC50 [1]	IC50 [3]	Compound	inhibition in vivo at 10 mg/kg (gastric acid secretion [2])	inhibitory activity on gastric acid secretion when administered in vivo (gastric acid secretion [4])	binding activity to gastrin receptors (gastrin receptors)	binding activity to CCK-B receptors (CCK-B receptors)
1.4 nM	0.56 nM	CCOC(CN1C(=O)C(CC(=O)Nc2ccc(C)cn2)(NC(=O)Nc2cccc(OC)c2)c2ccccc21)OCC (racemic) [Example 158, (RS)-1-(2,2-Diethoxyethyl)-3-(N'-(3-methoxyphenyl)ureido)-3-((5-methylpyrido-2-yl)aminocarbonylmethyl)indolin-2-one]	66%			
0.54 nM	0.42 nM	CCOC(CN1C(=O)C(CC(=O)Nc2ccc(C)cc2)(NC(=O)Nc2ccc(C)cc2)c2ccccc21)OCC (single isomer, unassigned; (+)) [Example 174, (+)-1-(2,2-Diethoxyethyl)-3-(4-methylphenyl)aminocarbonylmethyl-3-(N'-(4-methylphenyl)ureido)indolin-2-one]	70%			
1.6 nM	0.14 nM	CCOC(CN1C(=O)C(CC(=O)Nc2ccc(C)cn2)(NC(=O)Nc2ccc(C)cc2)c2ccccc21)OCC (single isomer, unassigned; (+)) [Example 179]	63%			
4.6 nM	0.36 nM	CCOC(CN1C(=O)C(CC(=O)Nc2ccc(N(C)C)cc2)(NC(=O)Nc2ccc(C)cc2)c2ccccc21)OCC (single isomer, unassigned; (+)) [Example 180, (+)-1-(2,2-Diethoxyethyl)-3-((4-(N,N-dimethylamino)phenyl)aminocarbonylmethyl)-3-(N'-(4-methylphenyl)ureido)indolin-2-one]	73%			
5.5 nM	0.45 nM	CCOC(CN1C(=O)C(CC(=O)Nc2ccc(N(C)C)cc2)(NC(=O)Nc2cccc(OC)c2)c2ccccc21)OCC (single isomer, unassigned; (+)) [Example 191]	78%			
